Measured values as given in US20240317777A1, “NOVEL MACROCYCLIC AMINOPYRAZOLE COMPOUNDS AS CDK2 INHIBITORS” (Accutar Biotechnology Inc., priority 2023, published 2024).
Read-outs that look alike come from different tables or passages of the source.

Key:
[1] = the molecule shown is the open-chain precursor, other bond
[2] = other bond

SMILES: CC(C)(C)n1nc([C@H]2CC[C@@H](OC(=O)Oc3ccc([N+](=O)[O-])cc3)C2)cc1Nc1cc(CCCCCN)nc(C(F)F)c1
- ring closure, isolated yield ([1]; 18-membered ring, DIEA, THF, 3.27 mM, 30.0 °C): 44.1%

SMILES: CC(C)(C)n1nc([C@H]2CC[C@@H](OC(=O)Oc3ccc([N+](=O)[O-])cc3)C2)cc1Nc1cc(OCCCCN)nc(C(F)F)c1
- ring closure, isolated yield ([1]; 18-membered ring, DIEA, THF, 1.11 mM, 25.0 °C): 65%

SMILES: CC(C)(C)n1nc([C@H]2CC[C@@H](OC(=O)Oc3ccc([N+](=O)[O-])cc3)C2)cc1Nc1cncc(OCC2CC(N)C2)n1 (stereo partly shown)
- ring closure, isolated yield ([1]; 18-membered ring, DIEA, DMSO, 2.3 mM, 100.0 °C): 38%

SMILES: CC(C)(C)n1nc([C@H]2CC[C@@H](OC(=O)Oc3ccc([N+](=O)[O-])cc3)C2)cc1Nc1cncc(OCCCCN)c1
- ring closure, isolated yield ([1]; 18-membered ring, DIEA, THF, 2.01 mM, 25.0 °C): 49.3%

SMILES: CC(C)(C)n1nc([C@H]2C[C@@H](F)[C@@H](OC(=O)Oc3ccc([N+](=O)[O-])cc3)C2)cc1Nc1ccnc(OCC2CC(N)C2)c1 (stereo partly shown)
- ring closure, isolated yield ([1]; 18-membered ring, DIEA, THF, 1.7 mM, 60.0 °C): 37%

SMILES: CC(C)(C)n1nc2cc1Nc1ccnc(c1)OC[C@H]1C[C@@H](C1)NC(=O)O[C@H]1C[C@@H]2C[C@H]1F
- ring closure, yield of all isomers ([2]; from CC(C)(C)n1nc([C@H]2C[C@@H](F)[C@@H](OC(=O)Oc3ccc([N+](=O)[O-])cc3)C2)cc1Nc1ccnc(OC[C@H]2C[C@H](N)C2)c1, DIEA, THF, 1.7 mM, 60.0 °C, 12.0 h): 37%

SMILES: CC(C)(C)n1nc2cc1Nc1cncc(n1)OC[C@H]1C[C@@H](C1)NC(=O)O[C@@H]1CC[C@H]2C1
- ring closure, yield of all isomers ([2]; from CC(C)(C)n1nc([C@H]2CC[C@@H](OC(=O)Oc3ccc([N+](=O)[O-])cc3)C2)cc1Nc1cncc(OC[C@H]2C[C@H](N)C2)n1, DIEA, DMSO, 2.3 mM, 100.0 °C, 12.0 h): 38%

SMILES: CC(C)(N)CCCOc1cc(Nc2cc([C@H]3CC[C@@H](OC(=O)Oc4ccc([N+](=O)[O-])cc4)C3)nn2C(C)(C)C)ccn1
- ring closure, isolated yield ([1]; 18-membered ring, DIEA/DMAP, THF, 1.81 mM, 50.0 °C): 88.8%

SMILES: CC(CC12CC(N)(C1)C2)Oc1cc(Nc2cc([C@H]3CC[C@@H](OC(=O)Oc4ccc([N+](=O)[O-])cc4)C3)nn2C(C)(C)C)cc(C(F)F)n1 (stereo partly shown)
- ring closure, isolated yield ([1]; 19-membered ring, DIEA, THF, 9.15 mM, 80.0 °C): 84.7%

SMILES: CC(N)CCCOc1cc(Nc2cc([C@H]3CC[C@@H](OC(=O)Oc4ccc([N+](=O)[O-])cc4)C3)nn2C(C)(C)C)ccn1 (stereo partly shown)
- ring closure, isolated yield ([1]; 18-membered ring, DIEA, THF, 2.06 mM, 30.0 °C): 98.5%

SMILES: CC1(C)CCCOc2cc(ccn2)Nc2cc(nn2C(C)(C)C)[C@H]2CC[C@H](C2)OC(=O)N1
- ring closure, yield of all isomers ([2]; from CC(C)(N)CCCOc1cc(Nc2cc([C@H]3CC[C@@H](OC(=O)Oc4ccc([N+](=O)[O-])cc4)C3)nn2C(C)(C)C)ccn1, DIPEA, DMAP, THF, 1.82 mM, 50.0 °C, 39.0 h): 88.8%

SMILES: CC1CC23CC(C2)(C3)NC(=O)O[C@@H]2CC[C@@H](C2)c2cc(n(C(C)(C)C)n2)Nc2cc(nc(C(F)F)c2)O1 (stereo partly shown)
- ring closure, yield of all isomers ([2]; from CC(CC12CC(N)(C1)C2)Oc1cc(Nc2cc([C@H]3CC[C@@H](OC(=O)Oc4ccc([N+](=O)[O-])cc4)C3)nn2C(C)(C)C)cc(C(F)F)n1, DIEA, THF, 9.15 mM, 80.0 °C, 2.0 h): 84.7%

SMILES: CC1CCCOc2cc(ccn2)Nc2cc(nn2C(C)(C)C)[C@H]2CC[C@H](C2)OC(=O)N1 (stereo partly shown)
- ring closure, yield of all isomers ([2]; from CC(N)CCCOc1cc(Nc2cc([C@H]3CC[C@@H](OC(=O)Oc4ccc([N+](=O)[O-])cc4)C3)nn2C(C)(C)C)ccn1, DIPEA, THF, 2.06 mM, 30.0 °C, 24.0 h): 98.5%

SMILES: CC1OCCCNC(=O)O[C@@H]2CC[C@@H](C2)c2cc(n(C(C)(C)C)n2)Nc2ccnc1c2 (stereo partly shown)
- ring closure, yield of all isomers ([2]; from CC(OCCCN)c1cc(Nc2cc([C@H]3CC[C@@H](OC(=O)Oc4ccc([N+](=O)[O-])cc4)C3)nn2C(C)(C)C)ccn1, DIEA, THF, 6.34 mM, 100.0 °C, 3.0 h): 87.5%

SMILES: C[C@@H](N)CC/C=C/c1cc(Nc2cc([C@H]3CC[C@@H](OC(=O)Oc4ccc([N+](=O)[O-])cc4)C3)nn2C(C)(C)C)ccn1
- ring closure, isolated yield ([1]; 18-membered ring, DIEA, THF, 1.46 mM, 70.0 °C): 98.6%

SMILES: C[C@@H](N)CCCCc1cc(Nc2cc([C@H]3CC[C@@H](OC(=O)Oc4ccc([N+](=O)[O-])cc4)C3)nn2C(C)(C)C)ccn1
- ring closure, isolated yield ([1]; 18-membered ring, DIEA, THF, 1.42 mM, 100.0 °C): 99.5%

SMILES: C[C@@H]1CC/C=C/c2cc(ccn2)Nc2cc(nn2C(C)(C)C)[C@H]2CC[C@H](C2)OC(=O)N1
- ring closure, yield of all isomers ([2]; from C[C@@H](N)CC/C=C/c1cc(Nc2cc([C@H]3CC[C@@H](OC(=O)Oc4ccc([N+](=O)[O-])cc4)C3)nn2C(C)(C)C)ccn1, DIEA, THF, 1.46 mM, 70.0 °C, 12.0 h): 98.6%

SMILES: C[C@@H]1CCCCc2cc(ccn2)Nc2cc(nn2C(C)(C)C)[C@H]2CC[C@H](C2)OC(=O)N1
- ring closure, yield of all isomers ([2]; from C[C@@H](N)CCCCc1cc(Nc2cc([C@H]3CC[C@@H](OC(=O)Oc4ccc([N+](=O)[O-])cc4)C3)nn2C(C)(C)C)ccn1, DIPEA, THF, 1.42 mM, 100.0 °C, 3.0 h): 99.5%

SMILES: C[C@@H]1NC(=O)O[C@@H]2CC[C@@H](C2)c2cc(n(C(C)(C)C)n2)Nc2ccnc(c2)OCCC1(F)F
- ring closure, yield of all isomers ([2]; from C[C@H](N)C(F)(F)CCOc1cc(Nc2cc([C@H]3CC[C@@H](OC(=O)Oc4ccc([N+](=O)[O-])cc4)C3)nn2C(C)(C)C)ccn1, DIEA, DMSO, 1.15 mM, 100.0 °C, 16.0 h): 87.3%

SMILES: C[C@@H]1NC(=O)O[C@@H]2CC[C@@H](C2)c2cc(n(C(C)(C)C)n2)Nc2ccnc(c2)OCCC1F (stereo partly shown)
- ring closure, yield of all isomers ([2]; from C[C@H](N)C(F)CCOc1cc(Nc2cc([C@H]3CC[C@@H](OC(=O)Oc4ccc([N+](=O)[O-])cc4)C3)nn2C(C)(C)C)ccn1, DIEA, DMSO, 1.71 mM, 100.0 °C, 2.0 h): 97%

SMILES: C[C@@H]1NC(=O)O[C@H]2C[C@H](C[C@H]2F)c2cc(n(C(C)(C)C)n2)Nc2ccnc(c2)OCCC1(F)F
- ring closure, yield of all isomers ([2]; from C[C@H](N)C(F)(F)CCOc1cc(Nc2cc([C@H]3C[C@@H](F)[C@@H](OC(=O)Oc4ccc([N+](=O)[O-])cc4)C3)nn2C(C)(C)C)ccn1, DIEA, DMSO, 3.13 mM, 100.0 °C, 12.0 h): 88%

SMILES: C[C@H](N)C(F)(F)CCOc1cc(Nc2cc([C@H]3C[C@@H](F)[C@@H](OC(=O)Oc4ccc([N+](=O)[O-])cc4)C3)nn2C(C)(C)C)ccn1
- ring closure, isolated yield ([1]; 18-membered ring, DIEA, DMSO, 3.13 mM, 100.0 °C): 88%

SMILES: C[C@H](N)C(F)CCOc1cc(Nc2cc([C@H]3CC[C@@H](OC(=O)Oc4ccc([N+](=O)[O-])cc4)C3)nn2C(C)(C)C)ccn1 (stereo partly shown)
- ring closure, isolated yield ([1]; 18-membered ring, DIEA, DMSO, 1.71 mM, 100.0 °C): 97%

SMILES: C[C@H](N)CCCOc1cc(Nc2cc([C@H]3CC[C@@H](OC(=O)Oc4ccc([N+](=O)[O-])cc4)C3)nn2C(C)(C)C)ccn1
- ring closure, isolated yield ([1]; 18-membered ring, DIEA, THF, 3.53 mM, 50.0 °C): 84.8%

SMILES: C[C@H](N)CCCOc1nccc(Nc2cc([C@H]3CC[C@@H](OC(=O)Oc4ccc([N+](=O)[O-])cc4)C3)nn2C(C)(C)C)n1
- ring closure, isolated yield ([1]; 18-membered ring, DIEA, DMSO, 1.79 mM, 80.0 °C): 93%

SMILES: C[C@H]1CC(F)(F)COc2cc(ccn2)Nc2cc(nn2C(C)(C)C)[C@H]2CC[C@H](C2)OC(=O)N1
- ring closure, yield of all isomers ([2]; from C[C@H](N)CC(F)(F)COc1cc(Nc2cc([C@H]3CC[C@@H](OC(=O)Oc4ccc([N+](=O)[O-])cc4)C3)nn2C(C)(C)C)ccn1, DIEA, THF, 1.83 mM, 80.0 °C, 12.0 h): 66.2%

SMILES: C[C@H]1CC/C=C/c2cc(ccn2)Nc2cc(nn2C(C)(C)C)[C@H]2CC[C@H](C2)OC(=O)N1
- ring closure, yield of all isomers ([2]; from C[C@H](N)CC/C=C/c1cc(Nc2cc([C@H]3CC[C@@H](OC(=O)Oc4ccc([N+](=O)[O-])cc4)C3)nn2C(C)(C)C)ccn1, DIEA, THF, 1.6 mM, 60.0 °C, 2.0 h): 93.9%

SMILES: C[C@H]1CCCC(F)(F)c2cc(ccn2)Nc2cc(nn2C(C)(C)C)[C@H]2CC[C@H](C2)OC(=O)N1
- ring closure, yield of all isomers ([2]; from C[C@H](N)CCCC(F)(F)c1cc(Nc2cc([C@H]3CC[C@@H](OC(=O)Oc4ccc([N+](=O)[O-])cc4)C3)nn2C(C)(C)C)ccn1, DIEA, THF, 1.33 mM, 25.0 °C, 3.0 h): 99.3%

SMILES: C[C@H]1CCCCc2cc(ccn2)Nc2cc(nn2C(C)(C)C)[C@H]2CC[C@H](C2)OC(=O)N1
- ring closure, yield of all isomers ([2]; from C[C@H](N)CCCCc1cc(Nc2cc([C@H]3CC[C@@H](OC(=O)Oc4ccc([N+](=O)[O-])cc4)C3)nn2C(C)(C)C)ccn1, DIEA, THF, 0.92 mM, 20.0 °C, 4.0 h): 91.9%

SMILES: C[C@H]1CCCOc2cc(c(F)cn2)Nc2cc(nn2C(C)(C)C)[C@H]2CC[C@H](C2)OC(=O)N1
- ring closure, yield of all isomers ([2]; from C[C@H](N)CCCOc1cc(Nc2cc([C@H]3CC[C@@H](OC(=O)Oc4ccc([N+](=O)[O-])cc4)C3)nn2C(C)(C)C)c(F)cn1, DIEA, THF, 1.71 mM, 25.0 °C, 3.0 h): 99.9%

SMILES: C[C@H]1CCCOc2cc(cc(F)n2)Nc2cc(nn2C(C)(C)C)[C@H]2CC[C@H](C2)OC(=O)N1
- ring closure, yield of all isomers ([2]; from C[C@H](N)CCCOc1cc(Nc2cc([C@H]3CC[C@@H](OC(=O)Oc4ccc([N+](=O)[O-])cc4)C3)nn2C(C)(C)C)cc(F)n1, DIEA, THF, 1.71 mM, 25.0 °C, 3.0 h): 97.8%

SMILES: C[C@H]1CCCOc2cc(ccn2)Nc2cc(nn2C(C)(C)C)[C@H]2CC[C@H](C2)OC(=O)N1
- ring closure, yield of all isomers ([2]; from C[C@H](N)CCCOc1cc(Nc2cc([C@H]3CC[C@@H](OC(=O)Oc4ccc([N+](=O)[O-])cc4)C3)nn2C(C)(C)C)ccn1, DIEA, THF, 3.53 mM, 50.0 °C, 12.0 h): 84.8%

SMILES: C[C@H]1CCCOc2nccc(n2)Nc2cc(nn2C(C)(C)C)[C@H]2CC[C@H](C2)OC(=O)N1
- ring closure, yield of all isomers ([2]; from C[C@H](N)CCCOc1nccc(Nc2cc([C@H]3CC[C@@H](OC(=O)Oc4ccc([N+](=O)[O-])cc4)C3)nn2C(C)(C)C)n1, DIEA, DMSO, 1.79 mM, 80.0 °C, 3.0 h): 93%

SMILES: C[C@H]1CCO[C@H](C)c2cc(ccn2)Nc2cc(nn2C(C)(C)C)[C@H]2CC[C@H](C2)OC(=O)N1
- ring closure, yield of all isomers ([2]; from C[C@H](N)CCO[C@H](C)c1cc(Nc2cc([C@H]3CC[C@@H](OC(=O)Oc4ccc([N+](=O)[O-])cc4)C3)nn2C(C)(C)C)ccn1, DIEA, THF, 0.86 mM, 25.0 °C, 12.0 h): 92.1%
